Measurements: paper PMC12203311, “Design, synthesis, in silico and in vitro evaluation of pyrrole–indole hybrids as dual tubulin and aromatase inhibitors with potent anticancer activities” (RSC Advances, 2025)
Read-outs that look alike come from different tables or passages of the source.

Tests used:
MALME-3M = test: NCI60 five-dose screen; format: cell-based; conditions: Homo sapiens, melanoma
Human CYP19 (aromatase) = target: T1, Human CYP19 (aromatase) (Homo sapiens, UniProt P11511); test: Aromatase inhibition assay (DBF fluorometric substrate); format: biochemical; conditions: active defined as IC50 < 12.5 µM
T1 construct: purchased GENTEST, Woburn, MA 456260; host or cells: baculovirus/insect cells
T1 sequence (P11511 1-503): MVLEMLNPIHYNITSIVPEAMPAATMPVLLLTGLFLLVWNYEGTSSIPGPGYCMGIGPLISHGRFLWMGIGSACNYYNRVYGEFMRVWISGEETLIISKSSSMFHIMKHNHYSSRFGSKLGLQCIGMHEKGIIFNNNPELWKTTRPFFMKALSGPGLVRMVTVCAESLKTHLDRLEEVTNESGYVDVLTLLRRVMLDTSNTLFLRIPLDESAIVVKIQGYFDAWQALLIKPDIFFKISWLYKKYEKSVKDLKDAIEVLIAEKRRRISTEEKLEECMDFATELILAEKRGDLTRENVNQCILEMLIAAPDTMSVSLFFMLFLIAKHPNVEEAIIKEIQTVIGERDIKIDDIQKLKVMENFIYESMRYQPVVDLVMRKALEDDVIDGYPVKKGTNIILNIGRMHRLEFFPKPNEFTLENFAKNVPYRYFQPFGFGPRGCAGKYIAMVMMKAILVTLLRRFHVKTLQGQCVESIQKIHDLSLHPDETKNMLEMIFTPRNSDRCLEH
Method: Aromatase enzyme was purchased from GENTEST, Woburn, MA01801, USA (Supersom human CYP19+oxidoreductase, baculovirus/insect cell-expressed; Product No. 456260). The aromatase inhibitory activity was performed using Human CYP19 enzymes and DBF as a fluorometric substrate as described by Stresser, et al.[41] with minor modifications. The mixture, containing 100 µL of cofactor/serial dilution buffer was pre-incubated in 37 °C for 10 min. […] After incubation at 37 °C for 30 min, the reaction was stopped by addition of 50 µL of 2.2 M NaOH. Fluorescence signal was monitored using an excitation wavelength of 490 nm and emission wavelength of 530 nm.

MDA-MB-231/ATCC = test: NCI60 five-dose screen; format: cell-based; conditions: Homo sapiens, breast cancer
EKVX = test: NCI60 five-dose screen; format: cell-based; conditions: Homo sapiens, NSC lung cancer
M14 = test: NCI60 five-dose screen; format: cell-based; conditions: Homo sapiens, M14, melanoma
SK-OV-3 = test: NCI60 five-dose screen; format: cell-based; conditions: Homo sapiens, SK-OV-3, ovarian cancer
RXF 393 = test: NCI60 five-dose screen; format: cell-based; conditions: Homo sapiens, RXF 393, renal cancer
HS 578T = test: NCI60 five-dose screen; format: cell-based; conditions: Homo sapiens, breast cancer
UACC-257 = test: NCI60 five-dose screen; format: cell-based; conditions: Homo sapiens, UACC-257, melanoma
A549/ATCC = test: NCI60 five-dose screen; format: cell-based; conditions: Homo sapiens, NSC lung cancer
MCF7 = test: NCI60 five-dose screen; format: cell-based; conditions: Homo sapiens, MCF7, breast cancer
NCI-H522 = test: NCI60 five-dose screen; format: cell-based; conditions: Homo sapiens, NCI-H522, NSC lung cancer
NCI-H322M = test: NCI60 five-dose screen; format: cell-based; conditions: Homo sapiens, NSC lung cancer
OVCAR-8 = test: NCI60 five-dose screen; format: cell-based; conditions: Homo sapiens, OVCAR-8, ovarian cancer
SW-620 = test: NCI60 five-dose screen; format: cell-based; conditions: Homo sapiens, SW-620, colon cancer
NCI-H460 = test: NCI60 five-dose screen; format: cell-based; conditions: Homo sapiens, NCI-H460, NSC lung cancer
SF-539 = test: NCI60 five-dose screen; format: cell-based; conditions: Homo sapiens, SF-539, CNS cancer
MOLT-4 = test: NCI60 five-dose screen; format: cell-based; conditions: Homo sapiens, MOLT-4, leukemia
DU-145 = test: NCI60 five-dose screen; format: cell-based; conditions: Homo sapiens, DU-145, prostate cancer
SNB-19 = test: NCI60 five-dose screen; format: cell-based; conditions: Homo sapiens, SNB-19, CNS cancer
NCI/ADR-RES = test: NCI60 five-dose screen; format: cell-based, human; conditions: ovarian cancer; for CC50: read-out: LC50 (the source's name)
OVCAR-4 = test: NCI60 five-dose screen; format: cell-based; conditions: Homo sapiens, OVCAR-4, ovarian cancer
MDA-MB-435 = test: NCI60 five-dose screen; format: cell-based, human; conditions: Homo sapiens
K-562 = test: NCI60 five-dose screen; format: cell-based; conditions: Homo sapiens, K562, K-562, leukemia
KM12 = test: NCI60 five-dose screen; format: cell-based; conditions: Homo sapiens, KM12, colon cancer
NCI-H226 = test: NCI60 five-dose screen; format: cell-based; conditions: Homo sapiens, NCI-H226, NSC lung cancer
HCT-15 = test: NCI60 five-dose screen; format: cell-based; conditions: Homo sapiens, HCT-15, colon cancer
[1] = read-out: LC50 (the source's name)

Q: Which GI50 (MALME-3M) does the source give for `O=C(N/N=C/c1cc(Br)c[nH]1)c1[nH]c2ccc(Br)cc2c1-c1ccccc1` [Derivative 3e, (E)-5-Bromo-N′-((4-bromo-1H-pyrrol-2-yl)methylene)-3-phenyl-1H-indole-2-carbohydrazide] here?
A: 665 nM

Q: And the CC50 (MALME-3M; [1])?
A: 32500 nM

Q: And the IC50 (Human CYP19 (aromatase))?
A: 4000 ± 1000 nM

Q: And the GI50 (MDA-MB-231/ATCC)?
A: 215 nM

Q: And the CC50 (MDA-MB-231/ATCC; [1])?
A: 14300 nM

Q: And the GI50 (EKVX)?
A: 620 nM

Q: And the CC50 (EKVX; [1])?
A: 34300 nM

Q: What about the GI50 (M14) of the same molecule?
A: 270 nM

Q: And the CC50 (M14; [1])?
A: 20200 nM

Q: And the GI50 (SK-OV-3)?
A: 966 nM

Q: What about the CC50 (SK-OV-3; [1]) of the same molecule?
A: 53800 nM

Q: And the GI50 (RXF 393)?
A: 497 nM

Q: And the CC50 (RXF 393; [1])?
A: 37900 nM

Q: And the GI50 (HS 578T)?
A: 340 nM

Q: What about the CC50 (HS 578T; [1]) of the same molecule?
A: > 100000 nM

Q: What about the GI50 (UACC-257) of the same molecule?
A: 1090 nM

Q: And the CC50 (UACC-257; [1])?
A: 47000 nM

Q: And the GI50 (A549/ATCC)?
A: 395 nM

Q: What about the CC50 (A549/ATCC; [1]) of the same molecule?
A: 56400 nM

Q: And the GI50 (MCF7)?
A: 294 nM

Q: And the CC50 (MCF7; [1])?
A: 30700 nM

Q: What about the GI50 (NCI-H522) of the same molecule?
A: 185 nM

Q: And the CC50 (NCI-H522; [1])?
A: 19100 nM

Q: And the GI50 (NCI-H322M)?
A: 578 nM

Q: What about the CC50 (NCI-H322M; [1]) of the same molecule?
A: 38800 nM

Q: And the GI50 (OVCAR-8)?
A: 304 nM

Q: And the CC50 (OVCAR-8; [1])?
A: 18200 nM

Q: What about the GI50 (SW-620) of the same molecule?
A: 405 nM

Q: What about the CC50 (SW-620; [1]) of the same molecule?
A: 59400 nM

Q: What about the GI50 (NCI-H460) of the same molecule?
A: 353 nM

Q: And the CC50 (NCI-H460; [1])?
A: 43200 nM

Q: What about the GI50 (SF-539) of the same molecule?
A: 214 nM

Q: What about the CC50 (SF-539; [1]) of the same molecule?
A: 25500 nM

Q: And the GI50 (MOLT-4)?
A: 375 nM

Q: What about the CC50 (MOLT-4; [1]) of the same molecule?
A: > 100000 nM

Q: What about the GI50 (DU-145) of the same molecule?
A: 352 nM

Q: What about the CC50 (DU-145; [1]) of the same molecule?
A: 29700 nM

Q: What about the GI50 (SNB-19) of the same molecule?
A: 330 nM

Q: What about the CC50 (SNB-19; [1]) of the same molecule?
A: 34500 nM

Q: What about the GI50 (NCI/ADR-RES; Homo sapiens) of the same molecule?
A: 197 nM

Q: What about the CC50 (NCI/ADR-RES; Homo sapiens) of the same molecule?
A: 970 nM

Q: What about the CC50 (NCI/ADR-RES) of the same molecule?
A: 971 nM

Q: What about the GI50 (OVCAR-4) of the same molecule?
A: 1350 nM

Q: What about the CC50 (OVCAR-4; [1]) of the same molecule?
A: 40500 nM

Q: What about the CC50 (MDA-MB-435; MDA-MB-435, MDA-MB-435, melanoma, read-out: LC50 (the source's name)) of the same molecule?
A: 24300 nM

Q: And the GI50 (MDA-MB-435; MDA-MB-435, melanoma)?
A: 207 nM

Q: And the GI50 (K-562)?
A: 393 nM

Q: And the CC50 (K-562; [1])?
A: > 100000 nM

Q: And the GI50 (KM12)?
A: 301 nM

Q: And the CC50 (KM12; [1])?
A: 16300 nM

Q: What about the GI50 (NCI-H226) of the same molecule?
A: 382 nM

Q: What about the CC50 (NCI-H226; [1]) of the same molecule?
A: 29900 nM

Q: What about the GI50 (HCT-15) of the same molecule?
A: 280 nM

Q: What about the CC50 (HCT-15; [1]) of the same molecule?
A: 13500 nM
